Data: patent publication US20240166652A1, “MODULATORS OF THE INTEGRATED STRESS PATHWAY” (Calico Life Sciences LLC, priority 2017, published 2024)

What follows are compounds tested on ATF4 luciferase reporter in HEK293T cells (assay: ATF4-Luc assay (ATF4 luciferase reporter, tunicamycin-treated HEK293T cells)). Conditions: HEK293T cells carrying the ATF4 luciferase reporter, 1 μg/mL tunicamycin, 7 hours.
Format: cell-based, human
Procedure: In order to test exemplary compounds of the invention in a cellular context, a stable VWMD cell line was first constructed. The ATF4 reporter was prepared by fusing the human full-length ATF4 5′-UTR (NCBI Accession No. BC022088.2) in front of the firefly luciferase (FLuc) coding sequence lacking the initiator methionine as described in Sidrauski et al (eLife 2013). The construct was used to produce recombinant retroviruses using standard methods and the resulting viral supernatant was used to transduce HEK293T cells, which were then subsequently selected with puromycin to generate a stable cell line.
HEK293T cells carrying the ATF4 luciferase reporter were plated on polylysine coated 384-well plates (Greiner Bio-one) at 30,000 cells per well. Cells were treated the next day with 1 μg/mL tunicamycin and 200 nM of a compound of Formula (I) for 7 hours. Luminescence was measured using One Glo (Promega) as specified by the manufacturer. Cells were maintained in DMEM with L-glutamine supplemented with 10% heat-inactivated FBS (Gibco) and Antibiotic-Antimycotic solution (Gibco).
Table 2 below summarizes the EC50 data obtained using the ATF4-Luc assay for exemplary compounds of the invention.
Compound `O=C(COc1ccc(Cl)c(F)c1)NC12CCC(NC(=O)COc3ccc(C(F)(F)F)nc3)(CC1)C(F)C2` (single isomer, unassigned) [Compound 373] has an EC50 of 50 to 250 nM.

Same assay, conditions: Homo sapiens, HEK-293T; HEK293T cells carrying the ATF4 luciferase reporter, 1 μg/mL tunicamycin, 7 hours
`O=C(COc1ccc(Cl)c(F)c1)NC12CCC(NC(=O)COc3ccc(C(F)(F)F)nc3)(CC1)C(O)C2` (racemic) [Compound 301, 2-(4-chloro-3-fluorophenoxy)-N-[3-hydroxy-4-(2-{[6-(trifluoromethyl)pyridin-3-yl]oxy}acetamido)bicyclo[2.2.2]octan-1-yl]acetamide] gave an EC50 of under 10 nM.
In the case of `O=C(COc1ccc(Cl)c(F)c1)N[C@@]12CC[C@@](NC(=O)COc3ccc(Cl)c(F)c3)(C[C@@H]1O)[C@@H](O)C2` (racemic) [Compound 552, rac-N,N′-[(1R,2S,4R,5S)-2,5-dihydroxybicyclo[2.2.2]octane-1,4-diyl]bis[2-(4-chloro-3-fluorophenoxy)acetamide]], the EC50 is reported as under 10 nM.
With `CO[C@H]1C[C@]2(NC(=O)COc3ccc(Cl)c(F)c3)CC[C@@]1(NC(=O)COc1ccc(Cl)c(F)c1)CC2O` (mixture of isomers) [Compound 553, rac-N,N′-[(1R,4R,5S)-2-hydroxy-5-methoxybicyclo[2.2.2]octane-1,4-diyl]bis[2-(4-chloro-3-fluorophenoxy)acetamide]] the EC50 was under 10 nM.
`CO[C@@H]1C[C@]2(NC(=O)COc3ccc(Cl)c(F)c3)CC[C@@]1(NC(=O)COc1ccc(Cl)c(F)c1)CC2O` (mixture of isomers) [Compound 554, rac-N,N′-[(1R,4R,5R)-2-hydroxy-5-methoxybicyclo[2.2.2]octane-1,4-diyl]bis[2-(4-chloro-3-fluorophenoxy)acetamide]] showed an EC50 of under 10 nM.
Work on `CO[C@H]1C[C@]2(NC(=O)COc3ccc(Cl)c(F)c3)CC[C@@]1(NC(=O)COc1ccc(Cl)c(F)c1)CC2=O` (racemic) [Compound 555, rac-N,N′-[(1R,2S,4R)-2-methoxy-5-oxobicyclo[2.2.2]octane-1,4-diyl]bis[2-(4-chloro-3-fluorophenoxy)acetamide]] yielded an EC50 of 10 to 50 nM.
With `CO[C@@H]1C[C@]2(NC(=O)COc3ccc(Cl)c(F)c3)CC[C@@]1(NC(=O)COc1ccc(Cl)c(F)c1)CC2=O` (racemic) [Compound 556, rac-N,N′-[(1R,2R,4R)-2-methoxy-5-oxobicyclo[2.2.2]octane-1,4-diyl]bis[2-(4-chloro-3-fluorophenoxy)acetamide]] the EC50 was 10 to 50 nM.
In the case of `O=C(COc1ccc(Cl)c(F)c1)NC12CCC(NC(=O)COc3ccc(Cl)c(F)c3)(C[C@H]1O)[C@@H](O)C2` (racemic) [Compound 557, rac-N,N′-[(2R,5S)-2,5-dihydroxybicyclo[2.2.2]octane-1,4-diyl]bis[2-(4-chloro-3-fluorophenoxy)acetamide]], the EC50 is reported as under 10 nM.
`O=C(COc1ccc(Cl)c(F)c1)N[C@]12CC[C@](NC(=O)COc3ccc(Cl)c(F)c3)(C[C@@H]1O)[C@@H](O)C2` (racemic) [Compound 560, rac-N,N′-[(1S,2S,4S,5S)-2,5-dihydroxybicyclo[2.2.2]octane-1,4-diyl]bis[2-(4-chloro-3-fluorophenoxy)acetamide]] showed an EC50 of under 10 nM.
`O=C(COc1ccc(Cl)c(F)c1)NC12CCC(NC(=O)COc3ccc(Cl)c(F)c3)(CC1)[C@@H](O)[C@H]2Br` (racemic) [Compound 571, rac-N,N′-[(2S,3R)-2-bromo-3-hydroxybicyclo[2.2.2]octane-1,4-diyl]bis[2-(4-chloro-3-fluorophenoxy)acetamide]] was tested, and the EC50 was 10 to 50 nM.
With `O=C(COc1ccc(Cl)c(F)c1)N[C@]12CC[C@](NC(=O)COc3ccc(Cl)c(F)c3)(C1)[C@H](O)C2` (racemic) [Compound 579, rac-N,N′-[(1S,2R,4R)-2-hydroxybicyclo[2.2.1]heptane-1,4-diyl]bis[2-(4-chloro-3-fluorophenoxy)acetamide]] the EC50 was 10 to 50 nM.
For `O=C(COc1ccc(Cl)c(F)c1)N[C@]12CC[C@](NC(=O)COc3ccc(Cl)c(F)c3)(C1)[C@@H](O)C2` (racemic) [Compound 585, rac-N,N′-[(1S,2S,4R)-2-hydroxybicyclo[2.2.1]heptane-1,4-diyl]bis[2-(4-chloro-3-fluorophenoxy)acetamide]], the EC50 was under 10 nM.
Compound `O=C(COc1ccc(Cl)c(F)c1)N[C@@H]1[C@@H]2CC[C@@](NC(=O)COc3ccc(Cl)c(F)c3)(C2)C[C@H]1O` (racemic) [Compound 625, rac-N,N′-[(1R,3R,4R,5R)-3-hydroxybicyclo[3.2.1]octane-1,4-diyl]bis[2-(4-chloro-3-fluorophenoxy)acetamide]] has an EC50 of under 10 nM.
Compound `O=C(COc1ccc(Cl)c(F)c1)N[C@@H]1C[C@@H]2C[C@H]1C[C@H]2NC(=O)COc1ccc(Cl)c(F)c1` (racemic) [Compound 628, rac-N,N′-[(1R,2S,4R,5S)-bicyclo[2.2.1]heptane-2,5-diyl]bis[2-(4-chloro-3-fluorophenoxy)acetamide]] has an EC50 of under 10 nM.
Work on `O=C(COc1ccc(Cl)c(F)c1)N[C@@H]1[C@@H]2CC[C@@](NC(=O)COc3ccc(Cl)c(F)c3)(C2)C[C@@H]1O` (racemic) [Compound 638, rac-N,N′-[(1R,3S,4R,5R)-3-hydroxybicyclo[3.2.1]octane-1,4-diyl]bis[2-(4-chloro-3-fluorophenoxy)acetamide]] yielded an EC50 of under 10 nM.
`O=C(COc1ccc(Cl)c(F)c1)N[C@]12CC[C@H](C1)[C@@H](NCCOc1ccc(Cl)c(F)c1)[C@H](O)C2` (racemic) [Compound 649, rac-2-(4-chloro-3-fluorophenoxy)-N-[(1R,3R,4R,5R)-4-{[2-(4-chloro-3-fluorophenoxy)ethyl]amino}-3-hydroxybicyclo[3.2.1]octan-1-yl]acetamide] was tested, and the EC50 was under 10 nM.
With `O=C(COc1ccc(Cl)c(F)c1)N[C@@H]1CC[C@]2(NC(=O)COc3ccc(Cl)c(F)c3)CC[C@H]1C2` (racemic) [Compound 653, rac-N,N′-[(1S,4S,5R)-bicyclo[3.2.1]octane-1,4-diyl]bis[2-(4-chloro-3-fluorophenoxy)acetamide]] the EC50 was under 10 nM.
`O=C(COc1ccc(Cl)c(F)c1)NC12CCC(NC(=O)COc3ccc(Cl)c(F)c3)(CC1)[C@@H](O)[C@@H]2O` (racemic) [Compound 745, rac-N,N′-[(2R,3R)-2,3-dihydroxybicyclo[2.2.2]octane-1,4-diyl]bis[2-(4-chloro-3-fluorophenoxy)acetamide]] showed an EC50 of under 10 nM.
For `O=C(COc1ccc(Cl)c(F)c1)NC12CCC(NC(=O)COc3ccc(Cl)c(F)c3)(CC1)[C@H](O)C2` (single isomer, unassigned) [Compound 298], the EC50 was under 10 nM.
`O=C(COc1ccc(Cl)c(F)c1)NC12CCC(NC(=O)COc3ccc(C(F)(F)F)nc3)(CC1)[C@@H](O)C2` (single isomer, unassigned) [Compound 302] was tested, and the EC50 was under 10 nM.
`O=C(COc1ccc(Cl)c(F)c1)NC12CCC(NC(=O)COc3ccc(C(F)(F)F)nc3)(CC1)[C@H](O)C2` (single isomer, unassigned) [Compound 303] showed an EC50 of 10 to 50 nM.
With `O=C(COc1ccc(Cl)c(F)c1)NC12CCC(NC(=O)COc3ccnc(C(F)(F)F)c3)(CC1)[C@H](O)C2` (single isomer, unassigned) [Compound 318] the EC50 was 10 to 50 nM.
`O=C(COc1ccc(Cl)c(F)c1)NC12CCC(NC(=O)COc3ccnc(C(F)(F)F)c3)(CC1)[C@@H](O)C2` (single isomer, unassigned) [Compound 319] gave an EC50 of under 10 nM.
For `O=C(COc1ccc(Cl)c(F)c1)NC12CCC(NC(=O)COc3ccc(F)cc3)(CC1)[C@H](O)C2` (single isomer, unassigned) [Compound 353], the EC50 was under 10 nM.
Work on `O=C(COc1ccc(Cl)c(F)c1)NC12CCC(NC(=O)COc3ccc(F)cc3)(CC1)[C@@H](O)C2` (single isomer, unassigned) [Compound 354] yielded an EC50 of under 10 nM.
`O=C(COc1ccc(Cl)c(F)c1)NC12CCC(NC(=O)COc3ccc(C(F)(F)F)nc3)(CC1)C(F)C2` (single isomer, unassigned) [Compound 372] was tested, and the EC50 was 50 to 250 nM.
`CC(=O)O[C@@H]1CC2(NC(=O)COc3ccc(Cl)c(F)c3)CCC1(NC(=O)COc1ccc(Cl)c(F)c1)CC2` (single isomer, unassigned) [Compound 449] was tested, and the EC50 was 10 to 50 nM.
`O=C(COc1ccc(Cl)c(F)c1)N[C@H]1C[C@H]2C[C@@H]1C[C@@H]2NC(=O)COc1ccc(Cl)c(F)c1` (single isomer, unassigned) [Compound 620] showed an EC50 of under 10 nM.
Compound `O=C(COc1ccc(Cl)c(F)c1)N[C@@H]1C[C@@H]2C[C@H]1C[C@H]2NC(=O)COc1ccc(Cl)c(F)c1` (single isomer, unassigned) [Compound 621] has an EC50 of under 10 nM.
`O=C(COc1ccc(Cl)c(F)c1)NC12CCC(N[C@H](CCOc3ccc(Cl)cc3)C(=O)O)(CC1)C[C@@H]2O` (single isomer, unassigned) [Compound 693] was tested, and the EC50 was 500 to 2000 nM.
`O=C(COc1ccc(Cl)c(F)c1)NC12CCC(N[C@@H](CCOc3ccc(Cl)cc3)C(=O)O)(CC1)C[C@@H]2O` (single isomer, unassigned) [Compound 694] was tested, and the EC50 was 250 to 500 nM.
Work on `O=C(COc1ccc(Cl)c(F)c1)NC12CCC(NC(=O)COc3ccc(Cl)c(F)c3)(CC1)CC2` [Compound 100, N,N′-(bicyclo[2.2.2]octane-1,4-diyl)bis[2-(4-chloro-3-fluorophenoxy)acetamide]] yielded an EC50 of under 10 nM.
`O=C(COc1ccc(C(F)(F)F)nc1)NC12CCC(NC(=O)COc3ccc(Cl)c(F)c3)(CC1)CC2` [Compound 101, 2-(4-chloro-3-fluorophenoxy)-N-[4-(2-{[6-(trifluoromethyl)pyridin-3-yl]oxy}acetamido)bicyclo[2.2.2]octan-1-yl]acetamide] was tested, and the EC50 was 10 to 50 nM.
